Data reported in patent US12685777B2, “Compositions, systems, and methods for modulating a target gene” (The Board of Trustees of the Leland Stanford Junior …, priority 2022, dated 2026).
pEC50, pIC50: −log10 of the molar value. Values joined by “and” are separate entries in the source; they are usually repeats but may differ in a detail not shown here. Equal entries are not always repeated. Where two headings read alike, the source gives them in different places.

Key:
[1] = Measurement of serum half life (pharmacokinetics) in mice; assay type: in vivo
Description: Tests were performed to determine whether JWZ-7-7 is capable of maintaining sufficiently high blood levels for killing SCLC and DLBCL. Formulations for either IV or IP administration were prepared as follows:
• Concentration: 0.6 mg/ml • Composition: 5/5/90 DMSO/Tween80/saline • Dose: 5 μl/g body weight • Appearance: clear solution Formulation #2—Used for IP Animals • Concentration: 1 mg/ml • Composition: 5/5/90 DMSO/Tween80/saline • Dose: 10 μl/g body weight • Appearance: clear solution
After either IV or IP injection of 3 mice each with either 3 mg/Kg (IV) or 10 mg/Kg(IP), the levels of JWZ-7-7 were measured at the indicated intervals. The calculated T1/2 is 4.47 hours for IV injection and 5.63 hours for […].

[2] = target: T1, bromodomain 1 of BRD4 and BTB domain of BCL6 (Homo sapiens, UniProt O60885+P41182, C67R/C84N/C8Q); test: TR-FRET assay of ternary complex formation; assay type: binding; conditions: 1 hr at room temperature, 520 nm/490 nm ratio
T1 construct: contains amino acids 5-129 with three mutations, C8Q, C67R, C84N
Description: Reaction was incubated for 1 hr at room temperature, and subsequently the fluorescence at 520 nm and 490 nm was measured. The 520 nm/490 nm ratio is plotted respective to DMSO control. The two lower curves are performed by addition of Neg1 and Neg2 instead of JWZ-7-7. […] The structure of JWZ-7-7 is provided in FIG. 2 and the structures of Neg1 and Neg2 are provided below:
Each reaction contained 100 nM BRD4^BD1, 100 nM BCL6BTB-Avi-Biot, 20 nM Streptavidin-FITC (Thermo #SA1001), and 1:400 anti-6×His terbium antibody (PerkinElmer #61H12TLF) in 10 μL of buffer containing 20 mM HEPES, 150 mM NaCl, 0.1% BSA, 0.1% NP-40, and 1 mM TCEP in a 384-well plate. Protein was incubated with drug digitally dispensed (Tecan D300e) for 1 hour in the dark at room temperature before excitation at 337 nm and measurement of emission at 520 nm (FITC) and 490 nm (terbium) with a PHERAstar FS plate reader (BMG Labtech). The ratio of signal at 520 nm to 490 nm was calculated and normalized to DMSO-treated conditions, and plotted.

NCI-H2196 = test: Dose response on viability of small cell lung cancer line, resazurin assay; assay type: cell-based; conditions: Homo sapiens; NCI-H2196, 72 h treatment
Description: (§1) IC50 of JWZ-7-7, BI-3812, JQ1, and combinations were calculated based on a dose response curve on three small cell lung cancer lines (FIG. 5). The dose response curve on viability was performed in technical replicates and biological triplicate after treating cells for 72 hours across a broad range of concentrations via serial dilutions. Viable cells were measured after treatment via a resazurin assay. The signal for viable assays was normalized to the DMSO treated negative control. A four-parameter non-linear fit was performed to fit a curve to calculate the IC50 for each of the cell lines. The table below describes the calculated IC50 across JWZ-7-7, JQ1, BI-3812 and combination of JQ1 and BI-3812 after 72 h treatment in technical replicates and biological triplicates.

NCI-H1105 = test: as above; assay type: cell-based; conditions: NCI-H1105, 72 h treatment; read-out: IC50
Description: as §1

DMS-79 = test: as above; assay type: cell-based; conditions: Homo sapiens; DMS-79, 72 h treatment
Description: as §1

DLBCL cells = test: Killing of DLBCL cell lines (cell viability); assay type: cell-based
Description: 30,000 cells were plated in 100 μL media per well of a 96 well plate and treated with drug for indicated times and doses. A resazurin-based indicator of cell health (PrestoBlue, ThermoFisher #P50200) was added for 1.5 hours after which the fluorescence ratio at 560/590 nm was recorded. The background fluorescence was subtracted and the signal was normalized to DMSO-treated cells. EC50 measurements on cell lines were done with 4 biological repeats by separate cell passages maintained by 3 independent investigators. Fit of dose-response curves to data and statistical analysis was performed using drc package in R using the four-parameter log-logistic function.
It was noted that neither Bl3812 nor JQ1 produced complete loss of cell viability (FIG. 28, Panel A) leaving a resistant population of cells as has been previously reported.

BCL6 reporter = BCL6 reporter assay (GFP) in KARPAS422 cells; assay type: cell-based, human; conditions: KARPAS422, 8 hours
Description: KARPAS422 cells were lentivirally transduced with a construct containing the reporter. […] Cells were washed in 2.5% FBS/PBS, 1:250 v/v of 7-AAD was added to distinguish live from dead cells, and harvested for flow cytometry on a BD Accuri. The GFP-positive gate were drawn off non-transduced cells and normalized to cells treated with DMSO.

[3] = mouse, 3 mg/Kg IV, individual mice and Avg., 3 mg/kg
[4] = mouse, 3 mg/Kg IV, individual mice and Avg., 3 mg/kg, mean
[5] = mouse, 10 mg/Kg IP, individual mice and Avg., 10 mg/kg
[6] = mouse, 10 mg/Kg IP, individual mice and Avg., 10 mg/kg, mean

CNC(=O)COc1cc2cc(Nc3nc(N4CCC(C(=O)NCCCCCCCNC(=O)C[C@@H]5N=C(c6ccc(Cl)cc6)c6c(sc(C)c6C)-n6c(C)nnc65)CC4)ncc3Cl)cc(OC)c2n(C)c1=O [JWZ-7-7, (S)-1-(5-chloro-4-((8-methoxy-1-methyl-3-(2-(methylamino)-2-oxoethoxy)-2-oxo-1,2-dihydroquinolin-6-yl)amino)pyrimidin-2-yl)-N-(7-(2-(4-(4-chlorophenyl)-2,3,9-trimethyl-6H-thieno[3,2-f][1,2,4]triazolo[4,3-a][1,4]diazepin-6-yl)acetamido)heptyl)piperidine-4-carboxamide]
half-life ([1]; C57BL/6, mouse, serum, ip, 10 mg/kg, 10 mg/Kg IP, individual mice and Avg.): 5.63 h | Stability in serum ([1]; mouse): stable in serum | AUC% Extrap [1, 3]: 6.66% and 9.35% and 9.79% | AUCINF_obs [1, 3]: 797713 ng·min/mL and 444167 ng·min/mL and 988029 ng·min/mL | AUClast [1, 3]: 744580 min*ng/mL and 12.11 μM · hr and 402652 min*ng/mL and 6.55 μM · hr and 891309 min*ng/mL and 14.50 μM · hr | CI_obs [1, 3]: 3.8 mL/min/kg and 6.8 mL/min/kg and 3.0 mL/min/kg | Cmax [1, 3]: 31100 ng/mL and 14500 ng/mL and 36500 ng/mL | MRTINF_obs [1, 3]: 2.39 h and 2.14 h | T1/2 [1, 3]: 3.74 h and 3.93 h and 5.73 h | Vss_obs [1, 3]: 0.36 L/kg and 0.97 L/kg and 0.39 L/kg | AUC% Extrap [1, 4]: 8.60% | AUCINF_obs [1, 4]: 743303 ng·min/mL | AUClast [1, 4]: 679514 min*ng/mL and 11.06 μM · hr | CI_obs [1, 4]: 4.5 mL/min/kg | Cmax [1, 4]: 27367 ng/mL | MRTINF_obs [1, 4]: 2.04 h | Vss_obs [1, 4]: 0.57 L/kg | Cmax ([1]; mouse, 3 mg/Kg IV, individual mice and Avg., 3 mg/kg, mean, read-out: Cmax): 26.7 µM | Cmax ([1]; mouse, 3 mg/Kg IV, individual mice and Avg., 3 mg/kg, read-out: Cmax): 30.4 µM and 14.2 µM and 35.6 µM | AUC% Extrap [1, 5]: 42.22% and 42.00% and 38.85% | AUCINF_obs [1, 5]: 174254 ng·min/mL and 349182 ng·min/mL and 315593 ng·min/mL | AUClast [1, 5]: 100685 min*ng/mL and 1.64 μM · hr and 202511 min*ng/mL and 3.29 μM · hr and 192976 min*ng/mL and 3.14 μM · hr | Cl_obs [1, 5]: 57.4 mL/min/kg and 28.6 mL/min/kg and 31.7 mL/min/kg | Cmax [1, 5]: 389 ng/mL and 805 ng/mL and 885 ng/mL | T1/2 [1, 5]: 5.48 h and 6.32 h and 5.08 h | Tmax [1, 5]: 0.50 h and 1.00 h | AUC% Extrap [1, 6]: 41.03% | AUCINF_obs [1, 6]: 279676 ng·min/mL | AUClast [1, 6]: 165391 min*ng/mL and 2.69 μM · hr | Cl_obs [1, 6]: 39.2 mL/min/kg | Cmax [1, 6]: 693 ng/mL | Tmax [1, 6]: 0.53 h | Cmax ([1]; mouse, 10 mg/Kg IP, individual mice and Avg., 10 mg/kg, mean, read-out: Cmax): 0.68 µM | Cmax ([1]; mouse, 10 mg/Kg IP, individual mice and Avg., 10 mg/kg, read-out: Cmax): 0.38 µM and 0.79 µM and 0.86 µM | half-life ([1]; mouse, serum, iv, 3 mg/kg, 3 mg/Kg IV, individual mice and Avg.): 4.47 h | MRT inf ([1]; mouse, serum, iv, 3 mg/kg, 3 mg/Kg IV, individual mice and Avg., read-out: MRTINF_obs): 1.59 h | Tmax ([1]; mouse, serum, iv, 3 mg/kg, 3 mg/Kg IV, individual mice and Avg., read-out: Tmax): 0.08 h | Ternary complex formation (TR-FRET) [2]: showed ternary complex formation | pIC50 (NCI-H2196): 7.09 | pIC50 (NCI-H1105): 7.12 | pIC50 (DMS-79): 7.18 | Cell killing after short exposure and washout (DLBCL cells; 10 nM, 4 hours exposure followed by washout): robust killing

CNC(=O)COc1cc2cc(Nc3nc(N4CCC(C(=O)NCCCCCCCNC(=O)C[C@@H]5N=C(c6ccc(Cl)cc6)c6c(sc(C)c6C)-n6c(C)nnc65)CC4)ncc3Cl)cc(OC)c2n(C)c1=O [TCIP1]
Activation of BCL6 reporter (BCL6 reporter): about 25 fold | pEC50 (BCL6 reporter; read-out: EC50 of BCL6 reporter activation): 8.30 | Ternary complex formation (TR-FRET) [2]: detected | pEC50 (DLBCL cells; DLBCL lines including chemotherapy-resistant, TP53-mutant lines, 72 hrs): 8.89
